Active and inactive are the calls of the source. The rule behind the calls is not given here.
Columns and labels:
RAW264.7 [1] = assay: Anti-inflammatory activity in mouse RAW264.7 cells assessed as inhibition of LPS-induced nitric oxide production after 24 hrs by Griess method; format: functional, cell-based; conditions: RAW264.7, 24 h
RAW264.7 [2] = assay: Cytotoxicity against mouse RAW264.7 cells at 30 uM after 24 hrs in presence of LPS by MTT assay; format: cell-based; conditions: raw264.7, 24 h
RAW264.7 [3] = assay: Cytotoxicity against mouse RAW264.7 cells at 30 uM after 24 hrs in absence of LPS by MTT assay; format: cell-based; conditions: raw264.7, 24 h
RAW264.7 [4] = assay: Anti-inflammatory activity in mouse RAW264.7 cells assessed as reduction in LPS-induced iNOS mRNA expression preincubated for 30 mins followed by LPS stimulation measured after 8 hrs by real-time qPCR method; format: functional, cell-based
RAW264.7 [5] = assay: Anti-inflammatory activity in mouse RAW264.7 cells assessed as reduction in LPS-induced IL6 mRNA expression preincubated for 30 mins followed by LPS stimulation measured after 8 hrs by real-time qPCR method; format: functional, cell-based
RAW264.7 [6] = assay: Anti-inflammatory activity in mouse RAW264.7 cells assessed as reduction in LPS-induced COX2 mRNA expression preincubated for 30 mins followed by LPS stimulation measured after 8 hrs by real-time qPCR method; format: functional, cell-based
RAW264.7 [7] = assay: Anti-inflammatory activity in mouse RAW264.7 cells assessed as reduction in iNOS protein expression preincubated for 30 mins before LPS stimulation for 24 hrs by Western blot analysis; format: functional, cell-based
RAW264.7 [8] = assay: Anti-inflammatory activity in mouse RAW264.7 cells assessed as reduction in COX2 protein expression at 30 uM preincubated for 30 mins before LPS stimulation for 24 hrs by Western blot analysis; format: functional, cell-based
RAW264.7 [9] = assay: Anti-inflammatory activity in mouse RAW264.7 cells assessed as reduction in LPS-induced TNFalpha mRNA expression preincubated for 30 mins followed by LPS stimulation measured after 8 hrs by real-time qPCR method; format: functional, cell-based

| Structure (SMILES) | IC50 (RAW264.7 [1]) [µM] | Activity (RAW264.7 [2]) | Activity (RAW264.7 [3]) | Activity (RAW264.7 [4]) | Activity (RAW264.7 [5]) | Activity (RAW264.7 [6]) | Activity (RAW264.7 [7]) | Activity (RAW264.7 [8]) | Activity (RAW264.7 [9]) |
| --- | --- | --- | --- | --- | --- | --- | --- | --- | --- |
| C=CCCCCCCCC/C=C/[C@H]1C(=O)O[C@H](C)[C@@H]1O | 14 | Non-Toxic | Non-Toxic |  |  |  |  |  |  |
| CC1=C(O)C(=O)C=C2C1=CC=C1[C@@]2(C)CC[C@@]2(C)[C@@H]3C[C@](C)(C(=O)O)CC[C@]3(C)CC[C@]12C [CELASTROL] | 1 |  |  |  |  |  |  |  |  |
| C=CCCCCCCCCC/C=C1/C(=O)O[C@@H](C)[C@H]1O | 3 | Non-Toxic | Non-Toxic |  |  |  |  |  |  |
| C#CCCCCCCCC/C=C/C1=CC(C)OC1=O (centres undefined) | > 30 | Non-Toxic | Non-Toxic |  |  |  |  |  |  |
| C=CCCCCCCCC/C=C/[C@H]1C(=O)O[C@@H](C)[C@H]1O | > 30 | Non-Toxic | Non-Toxic |  |  |  |  |  |  |
| CCCCCCCCCCCC/C=C/C1=CC(C)OC1=O (centres undefined) | > 30 | Non-Toxic | Non-Toxic |  |  |  |  |  |  |
| C=CCCCCCCCCC/C=C1/C(=O)O[C@H](C)[C@H]1O | 3.1 | Non-Toxic | Non-Toxic | Dose-dependent effect | Dose-dependent effect | Dose-dependent effect | Dose-dependent effect | Active | Dose-dependent effect |
| CCCCC/C=C\C/C=C\CCCCC/C=C1/C(=O)O[C@H](C)[C@H]1O | 4.4 | Non-Toxic | Non-Toxic |  |  |  | Dose-dependent effect | Active |  |
| CCCCC/C=C/C/C=C/CCCC/C=C/C1=CC(C)OC1=O (centres undefined) | > 30 | Non-Toxic | Non-Toxic |  |  |  |  |  |  |
| C=C/C=C/CCCCCCCCC/C=C1/C(=O)O[C@H](C)[C@H]1O | 5.8 | Non-Toxic | Non-Toxic |  |  |  | Dose-dependent effect | Active |  |
| C=C/C=C/CCCCCCCC/C=C/C1=CC(C)OC1=O (centres undefined) | > 30 | Non-Toxic | Non-Toxic |  |  |  |  |  |  |
| C=CCCCCCCCCC/C=C1\C(=O)O[C@H](C)[C@H]1O | 4.5 | Non-Toxic | Non-Toxic |  |  |  | Dose-dependent effect |  |  |
| CCCCCCCCCC/C=C/C1=CC(C)OC1=O (centres undefined) | > 30 | Non-Toxic | Non-Toxic |  |  |  |  |  |  |
| C=CCCCCCCCC/C=C/C1=CC(C)OC1=O (centres undefined) | > 30 | Non-Toxic | Non-Toxic |  |  |  |  |  |  |
| C#CCCCCCCCCC/C=C1/C(=O)O[C@H](C)[C@H]1O | 6.2 | Non-Toxic | Non-Toxic |  |  |  | Dose-dependent effect | Active |  |
| C#CCCCCCCCC/C=C/[C@H]1C(=O)O[C@@H](C)[C@H]1O [LITSEALACTONE B] | > 30 | Non-Toxic | Non-Toxic |  |  |  |  |  |  |
| CC/C=C/CCCCCCCCC/C=C1/C(=O)O[C@H](C)[C@H]1O | 2.5 | Non-Toxic | Non-Toxic |  |  |  |  |  |  |
| C#CCCCCCCCCC/C=C1\C(=O)O[C@H](C)[C@H]1O | 12.8 | Non-Toxic | Non-Toxic |  |  |  | Dose-dependent effect |  |  |
| CCCCCCCCCCC/C=C1/C(=O)O[C@H](C)[C@H]1O | 2.9 | Non-Toxic | Non-Toxic |  |  |  |  |  |  |
